Where no end group is shown, it is not given here.
How the values were obtained:
[1] = mouse, in vivo
[2] = mouse
SARS-CoV-2 E (2E) [3] = target: T1, SARS-CoV-2 E (2E) (Severe acute respiratory syndrome coronavirus 2, UniProt P0DTC4); assay type: cell-based
HCoV-NL63 E protein [4] = target: T2, HCoV-NL63 E protein (Human coronavirus NL63, UniProt Q6Q1S0); assay type: cell-based; details: construct co-transfection, HEK 293T
HCoV-NL63 E protein [5] = target: T2, HCoV-NL63 E protein; assay type: cell-based; details: construct co-transfection, NIH 3T3
Method: (§1) For the imaging experiments in FIGS. 1a-1e and 7a-7f, NIH 3T3 cells were plated at a cell density of 2.5×10^5 cells/ml. The following day, the cells were transfected using Lipofectamine 3000 reagents (Thermo-Fisher, #L3000001). 4 μg of plasmid were mixed into 125 μL of serum-free OptiMEM with 5 μL of P3000 reagent. This was then added to another 125 μL of serum-free OptiMEM containing 7.5 μL of Lipofectamine 3000. Plasmid/P3000-lipofectamine complex was incubated for 15 minutes at room temperature, and then added to the plate. The medium was replaced 20-24 h after transfection, and 1 μM of Lysosensor Green DND-189 (Thermo-Fisher, L7535) was added. The cells were incubated for 30 minutes in a 37° C., 5% CO2 incubator. The medium was replaced one final time prior to imaging. The live cell imaging was conducted on a customized/automated fluorescence microscope (Ti—U, Nikon) using an environmental chamber (TOKAI) and the culture medium to maintain normal cell culture conditions (37° C., 5% CO2, 20% O2). […] Fluorescence quantification and analysis was performed with ImageJ software and Prism 7/8/9 (GraphPad). Representative images were also gathered on a Leica DMi8 confocal microscope. The following peptides (>95% purity) were synthesized by Thermo-Fisher/Pierce: […]

MERS-CoV E protein = MERS-CoV E protein (Middle East respiratory syndrome-related coronavirus, UniProt K9N5R3); assay type: cell-based
Chain of MERS-CoV E protein (K9N5R3 whole entry, looked up): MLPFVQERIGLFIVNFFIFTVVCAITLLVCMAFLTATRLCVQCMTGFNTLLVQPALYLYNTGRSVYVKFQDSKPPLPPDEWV

SARS-CoV-2 E (2E) [6] = target: T1, SARS-CoV-2 E (2E)
2E protein = 2E protein (Severe acute respiratory syndrome coronavirus 2, UniProt P0DTC4)
Chain of 2E protein (P0DTC4 whole entry, looked up): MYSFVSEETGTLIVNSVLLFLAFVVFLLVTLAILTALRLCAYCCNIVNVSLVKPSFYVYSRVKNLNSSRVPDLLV

HCoV-HKU1 E protein = HCoV-HKU1 E protein (Human coronavirus HKU1, UniProt Q5MQC8); assay type: cell-based; details: construct co-transfection, NIH 3T3
Chain of HCoV-HKU1 E protein (Q5MQC8 whole entry, looked up): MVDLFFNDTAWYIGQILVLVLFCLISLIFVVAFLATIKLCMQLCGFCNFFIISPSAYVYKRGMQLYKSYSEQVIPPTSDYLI
Method: as §1

T1 sequence (P0DTC4 whole entry, looked up): as the sequence (P0DTC4 whole entry, looked up) above
T2 sequence (Q6Q1S0 whole entry, looked up): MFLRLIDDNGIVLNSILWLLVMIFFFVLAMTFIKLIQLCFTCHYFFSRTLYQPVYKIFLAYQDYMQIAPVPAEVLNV

## GRKKRRQRRRPPQ-MYSFVSDDTGTLIVNSVL-L[C]AlexaFluo594 [TAT-MY18-2ED-Alexa Fluor 594]
NIH 3T3 cells
  Cell-penetrating "on" kinetics: faster cell-penetrating than N-terminal version
Vero-E6 cells
  Penetration into cells: can penetrate into these cells
[1]
  Detection of fluorescent peptide in nasal tissues: can permeate and is detectable in mouse nasal tissues
[1]; iv
  Detection of fluorescent peptide in lung tissues: can permeate and is detectable in mouse lung tissues

## GRKKRRQRRRPPQMYSFVSDDTGTLIVNSVL [iPep-SARS2-E]
SARS-CoV-2 WA1 virus; WA1 virus
  IC50: ~0.2 µM
[2]
  Toxicity in vivo: no obvious toxicity
[2]; in vivo
  Body weight: did not find that there are differences
  C5a (inflammation marker): did not find that there are differences
  Cxc112 (inflammation marker): did not find that there are differences

## GRKKRRQRRRPPQMYSFVSEETGTLIVNSVL [TAT-MY18]
SARS-CoV-2 E (2E) [3]
  Effect of synthetic peptide on 2E in DND-189-based pH imaging: effective cell-penetrating peptide
  Relative fluorescent intensity of DND-189 dye compared to mock: not different from mock

## MFLRLIDDNGIVLNSILW [HCoV-NL63 MY18 WT]
HCoV-NL63 E protein [4]
  Relative NFAT-FLuc/TK-RLuc activity (effect of NL63-E): could significantly reduce the effect of each E on NFAT/AP-1 reporter

## MFLRLIEEDGIVLNSILW [HCoV-NL63 MY18 2DE & N9D]
HCoV-NL63 E protein [5]
  DND-189 fluorescence (proton homeostasis), HCoV-NL63 E: could significantly rescue the phenotypes in proton homeostasis
HCoV-NL63 E protein [4]
  Relative NFAT-FLuc/TK-RLuc activity (effect of NL63-E): effective to inhibit the cellular toxicity

## MLPFVQERIGLFIVNFFI [MERS-CoV MY18 WT]
MERS-CoV E protein
  Relative NFAT-FLuc/TK-RLuc activity (effect of MERS-E): could significantly reduce the effect of each E on NFAT/AP-1 reporter

## MYSFVSDDTGTLIVNSVL [MY18-2ED]
SARS-CoV-2 E (2E) [6]
  Relative NFAT-FLuc/TK-RLuc activity (effect of 2E on NFAT/AP-1 pathway): significantly improves the inhibitory effect

## MYSFVSEETGTLIVNSVL [MY18]
2E protein
  Co-localization with 2E proteins: co-localized with 2E proteins
SARS-CoV-2 WA1 virus
  Inhibition of viral toxicity (cytopathic effect): moderate inhibitory effect on the virus
SARS-CoV-2 E (2E) [3]
  Effect of synthetic peptide on 2E in DND-189-based pH imaging: does not have any effect on 2E
SARS-CoV-2 E (2E) [6]
  Relative NFAT-FLuc/TK-RLuc activity (effect of 2E on NFAT/AP-1 pathway): significantly suppresses the effect of 2E on the NFAT/AP-1 pathway

## RQIKIWFQNRRMKWKKMYSFVSEETGTLIVNSVL [Pen-MY18]
SARS-CoV-2 E (2E) [3]
  Relative fluorescent intensity of DND-189 dye compared to mock: significantly lower than mock

## RRRRRRMYSFVSEETGTLIVNSVL [6Arg-MY18]
SARS-CoV-2 E (2E) [3]
  Relative fluorescent intensity of DND-189 dye compared to mock: significantly lower than mock

## VDLFFNETAWYIGQILV [HCoV-HKU1 MY18 D8E]
HCoV-HKU1 E protein
  DND-189 fluorescence (proton homeostasis), HCoV-HKU1 E: could significantly rescue the phenotypes in proton homeostasis

From patent US20250026796A1 (priority 2022, published 2025)
